Data reported in patent US20230077362A1 (CORTEVA AGRISCIENCE LLC, priority 2019, published 2023).
Where two headings read alike, the source gives them in different places.

Experiments:
[1] = system: Cabbage Looper (Trichoplusia ni) ("CL"), second instar larvae; assay: Bioassay on cabbage looper (CL), 128-well diet tray assay; format: in vivo; conditions: Trichoplusia ni
Procedure: (§1) Certain molecules disclosed in this document were tested against BAW and CL using procedures described in the following examples. In the reporting of the results, the “BAW & CL Rating Table” was used (See Table Section).
(§2) Trays were covered with a clear self-adhesive cover and held at 25° C., 14:10 light-dark cycle for five to seven days. Percent mortality was recorded for the larvae in each well; activity in the eight wells was then averaged. The results are indicated in the table entitled “Table ABC: Biological Results” (See Table Section).

[2] = system: Beet Armyworm (Spodoptera exigua) ("BAW"), second instar larvae; assay: Bioassay on beet armyworm (BAW), 128-well diet tray assay; format: in vivo; conditions: Spodoptera exigua
Procedure: as §1, §2

[3] = read-out: CL (Biological Results, rating)
[4] = read-out: BAW (Biological Results, rating)

Structure (SMILES)	pest or weed control at 50 µg/cm2 ([1]; read-out: CL rating) [%]	pest or weed control at 50 µg/cm2 ([2]; read-out: BAW rating) [%]	pest or weed control at 50 µg/cm2 [1, 3] [%]	pest or weed control at 50 µg/cm2 [2, 4] [%]
N#Cc1ccc(OCCC(F)(F)F)c(N2C(=O)CS/C2=N\C(=O)Nc2ccc(-n3cnc(-c4ccc(OC(F)(F)F)cc4)n3)cc2)c1 [Compound J406, (Z)-1-(3-(5-Cyano-2-(3,3,3-trifluoropropoxy)phenyl)-4-oxothiazolidin-2-ylidene)-3-(4-(3-(4-(trifluoromethoxy)phenyl)-1H-1,2,4-triazol-1-yl)phenyl)urea]	50 to 100	50 to 100		
Cc1ccc(C(C)C)c(N2C(=O)CS/C2=N\C(=O)Nc2ccc(-c3nnc(-c4ccc(OC(F)(F)F)cc4)s3)cc2F)c1 [Compound J499, (Z)-1-(2-Fluoro-4-(5-(4-(trifluoromethoxy)phenyl)-1,3,4-thiadiazol-2-yl)phenyl)-3-(3-(2-isopropyl-5-methylphenyl)-4-oxothiazolidin-2-ylidene)urea]	50 to 100	50 to 100		
Cc1ccc(COCC(F)(F)F)c(N2C(=O)CS/C2=N\C(=O)Nc2ccc(-c3ncn(-c4ccc(SC(F)(F)F)cc4)n3)cc2F)c1 [Compound J186, (Z)-1-(2-Fluoro-4-(1-(4-((trifluoromethyl)thio)phenyl)-1H-1,2,4-triazol-3-yl)phenyl)-3-(3-(5-methyl-2-((2,2,2-trifluoroethoxy)methyl)phenyl)-4-oxothiazolidin-2-ylidene)urea]			50 to 100	50 to 100
COC(C)c1ccc(C)cc1N1C(=O)CS/C1=N\C(=O)Nc1ccc(-c2ncn(-c3ccc(C(F)(F)F)cn3)n2)cc1Cl (stereo not drawn) [Compound J306, (Z)-1-(2-Chloro-4-(1-(5-(trifluoromethyl)pyridin-2-yl)-1H-1,2,4-triazol-3-yl)phenyl)-3-(3-(2-(1-methoxyethyl)-5-methylphenyl)-4-oxothiazolidin-2-ylidene)urea]			50 to 100	50 to 100
COC(C)c1ccc(C)cc1N1C(=O)CS/C1=N\C(=O)Nc1ccc(-c2ncn(-c3ccc(SC(F)(F)F)cc3)n2)cc1C (stereo not drawn) [Compound J233, (Z)-1-(3-(2-(1-Methoxyethyl)-5-methylphenyl)-4-oxothiazolidin-2-ylidene)-3-(2-methyl-4-(1-(4-((trifluoromethyl)thio)phenyl)-1H-1,2,4-triazol-3-yl)phenyl)urea]			50 to 100	50 to 100
Cc1ccc(OCC(F)(F)F)c(N2C(=O)CS/C2=N\C(=O)Nc2ccc(-c3ncn(-c4ccc(OC(F)(F)F)cc4)n3)cc2C(F)(F)F)c1 [Compound J115, (Z)-1-(3-(5-Methyl-2-(2,2,2-trifluoroethoxy)phenyl)-4-oxothiazolidin-2-ylidene)-3-(4-(1-(4-(trifluoromethoxy)phenyl)-1H-1,2,4-triazol-3-yl)-2-(trifluoromethyl)phenyl)urea]			50 to 100	50 to 100
Cc1ccc(C(C)C)c(N2C(=O)CS/C2=N\C(=O)Nc2ccc(-c3ncn(-c4ccc(OC(F)(F)F)cc4)n3)cc2C(C)C)c1 [Compound J99, (Z)-1-(2-Isopropyl-4-(1-(4-(trifluoromethoxy)phenyl)-1H-1,2,4-triazol-3-yl)phenyl)-3-(3-(2-isopropyl-5-methylphenyl)-4-oxothiazolidin-2-ylidene)urea]			50 to 100	50 to 100
Cc1ccc(COCC(F)(F)F)c(N2C(=O)CS/C2=N\C(=O)Nc2ccc(-c3ncn(-c4cc(C(F)(F)F)cc(C(F)(F)F)c4)n3)cc2F)c1 [Compound J760, (Z)-1-(4-(1-(3,5-Bis(trifluoromethyl)phenyl)-1H-1,2,4-triazol-3-yl)-2-fluorophenyl)-3-(3-(5-methyl-2-((2,2,2-trifluoroethoxy)methyl)phenyl)-4-oxothiazolidin-2-ylidene)urea]	0 to 50	50 to 100		
Cc1ccc(COCC(F)(F)F)c(N2C(=O)CS/C2=N\C(=O)Nc2ccc(-c3nnc(-c4ccc(OC(F)(F)F)cc4)s3)cc2F)c1 [Compound J500, (Z)-1-(2-Fluoro-4-(5-(4-(trifluoromethoxy)phenyl)-1,3,4-thiadiazol-2-yl)phenyl)-3-(3-(5-methyl-2-((2,2,2-trifluoroethoxy)methyl)phenyl)-4-oxothiazolidin-2-ylidene)urea]	50 to 100	50 to 100		
COC(C)c1ccc(C)cc1N1C(=O)CS/C1=N\C(=O)Nc1ccc(-c2ncn(-c3ccc(OC(F)(F)F)cn3)n2)cc1C(F)(F)F (stereo not drawn) [Compound J276, (Z)-1-(3-(2-(1-Methoxyethyl)-5-methylphenyl)-4-oxothiazolidin-2-ylidene)-3-(4-(1-(5-(trifluoromethoxy)pyridin-2-yl)-1H-1,2,4-triazol-3-yl)-2-(trifluoromethyl)phenyl)urea]			50 to 100	50 to 100
Cc1ccc(C(C)C)c(N2C(=O)CS/C2=N\C(=O)Nc2ccc(-c3ncn(-c4ccc(C(F)(F)F)cc4)n3)c(C)c2)c1 [Compound J4, (Z)-1-(3-(2-Isopropyl-5-methylphenyl)-4-oxothiazolidin-2-ylidene)-3-(3-methyl-4-(1-(4-(trifluoromethyl)phenyl)-1H-1,2,4-triazol-3-yl)phenyl)urea]			50 to 100	50 to 100
Cc1ccc(COCC(F)(F)F)c(N2C(=O)CS/C2=N\C(=O)Nc2ccc(-c3ncn(-c4ccc(C(F)(F)F)cc4)n3)cc2C)c1 [Compound J167, (Z)-1-(3-(5-Methyl-2-((2,2,2-trifluoroethoxy)methyl)phenyl)-4-oxothiazolidin-2-ylidene)-3-(2-methyl-4-(1-(4-(trifluoromethyl)phenyl)-1H-1,2,4-triazol-3-yl)phenyl)urea]			50 to 100	50 to 100
COC(c1ccc(C)cc1N1C(=O)CS/C1=N\C(=O)Nc1ccc(-c2nnc(-c3ccc(OC(F)(F)F)cc3)s2)cc1F)C(F)(F)F (stereo not drawn) [Compound J505, (Z)-1-(2-Fluoro-4-(5-(4-(trifluoromethoxy)phenyl)-1,3,4-thiadiazol-2-yl)phenyl)-3-(3-(5-methyl-2-(2,2,2-trifluoro-1-methoxyethyl)phenyl)-4-oxothiazolidin-2-ylidene)urea]	50 to 100			
Cc1ccc(OCCC(F)(F)F)c(N2C(=O)CS/C2=N\C(=O)Nc2ccc(-c3cn(-c4ccc(OC(F)(F)F)cc4)nn3)cc2)c1 [Compound J491, (Z)-1-(3-(5-Methyl-2-(3,3,3-trifluoropropoxy)phenyl)-4-oxothiazolidin-2-ylidene)-3-(4-(1-(4-(trifluoromethoxy)phenyl)-1H-1,2,3-triazol-4-yl)phenyl)urea]		50 to 100		
O=C(/N=C1\SCC(=O)N1c1cccc(-c2ccccc2)c1)Nc1ccc(-c2ncn(-c3ccc(OC(F)(F)F)cc3)n2)cc1F [Compound J715, (Z)-1-(3-([1,1′-Biphenyl]-3-yl)-4-oxothiazolidin-2-ylidene)-3-(2-fluoro-4-(1-(4-(trifluoromethoxy)phenyl)-1H-1,2,4-triazol-3-yl)phenyl)urea]		0 to 50		
CCOCc1ccc(C)cc1N1C(=O)CS/C1=N\C(=O)Nc1ccc(-c2nnc(-c3ccc(OC(F)(F)F)cc3)s2)cc1F [Compound J503, (Z)-1-(3-(2-(Ethoxymethyl)-5-methylphenyl)-4-oxothiazolidin-2-ylidene)-3-(2-fluoro-4-(5-(4-(trifluoromethoxy)phenyl)-1,3,4-thiadiazol-2-yl)phenyl)urea]	50 to 100			
COC(C)c1ccc(C)cc1N1C(=O)CS/C1=N\C(=O)Nc1ccc(-c2ncn(-c3ccc(C(F)(F)F)cn3)n2)cc1C(C)=O (stereo not drawn) [Compound J416, (Z)-1-(2-Acetyl-4-(1-(5-(trifluoromethyl)pyridin-2-yl)-1H-1,2,4-triazol-3-yl)phenyl)-3-(3-(2-(1-methoxyethyl)-5-methylphenyl)-4-oxothiazolidin-2-ylidene)urea]	50 to 100			
Cc1ccc(OCC(F)(F)F)c(N2C(=O)CS/C2=N\C(=O)Nc2ccc(-c3ncn(-c4ccc(OC(F)(F)F)cc4)n3)cc2O)c1 [Compound J176, (Z)-1-(2-Hydroxy-4-(1-(4-(trifluoromethoxy)phenyl)-1H-1,2,4-triazol-3-yl)phenyl)-3-(3-(5-methyl-2-(2,2,2-trifluoroethoxy)phenyl)-4-oxothiazolidin-2-ylidene)urea]				0 to 50
Cc1ccc(OCCC(F)(F)F)c(N2C(=O)CS/C2=N\C(=O)Nc2ccc(-c3nnc(-c4ccc(OC(F)(F)F)cc4)s3)cc2F)c1 [Compound J501, (Z)-1-(2-Fluoro-4-(5-(4-(trifluoromethoxy)phenyl)-1,3,4-thiadiazol-2-yl)phenyl)-3-(3-(5-methyl-2-(3,3,3-trifluoropropoxy)phenyl)-4-oxothiazolidin-2-ylidene)urea]		50 to 100		
CN(C)c1ccc(C(F)(F)F)c(N2C(=O)CS/C2=N\C(=O)Nc2ccc(-c3cn(-c4ccc(OC(F)(F)F)cc4)nn3)cc2)c1 [Compound J495, (Z)-1-(3-(5-(Dimethylamino)-2-(trifluoromethyl)phenyl)-4-oxothiazolidin-2-ylidene)-3-(4-(1-(4-(trifluoromethoxy)phenyl)-1H-1,2,3-triazol-4-yl)phenyl)urea]		0 to 50		
CC(=O)c1cc(-c2ncn(-c3ccc(C(F)(F)F)cn3)n2)ccc1NC(=O)/N=C1\SCC(=O)N1c1cc(C)ccc1COCC(F)(F)F [Compound J418, (Z)-1-(2-Acetyl-4-(1-(5-(trifluoromethyl)pyridin-2-yl)-1H-1,2,4-triazol-3-yl)phenyl)-3-(3-(5-methyl-2-((2,2,2-trifluoroethoxy)methyl)phenyl)-4-oxothiazolidin-2-ylidene)urea]		0 to 50		
